Measurements as given in ChEMBL document CHEMBL1201862, “PubChem BioAssay data set” (2004).
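Grown in 96-well plates, cells were treated for 48 hours with each compound at five concentrations. Insufficient inhibition: endpoint recorded as highest concentration tested. GI50 = concentration required for 50% inhibition of growth.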 The source made the active and inactive calls. Cut-off read from the data, not from the text of the source: active = GI50 up to about 1.1 µM and inactive = higher.

Assays:
Assay in all cases: DTP human tumour cell line panel, 48 h
786-0 = test system: 786-0
CAKI-1 = test system: CAKI-1
EKVX = test system: EKVX
HCT-116 = test system: HCT-116
HCT-15 = test system: HCT-15
HT-29 = test system: HT-29
MCF7 = test system: MCF7
MOLT-4 = test system: MOLT-4
NCI-H226 = test system: NCI-H226
NCI-H23 = test system: NCI-H23
OVCAR-3 = test system: OVCAR-3
OVCAR-5 = test system: OVCAR-5
SF-268 = test system: SF-268
SK-MEL-2 = test system: SK-MEL-2
SK-OV-3 = test system: SK-OV-3
SN12C = test system: SN12C
SNB-19 = test system: SNB-19
SNB-75 = test system: SNB-75
T47D = test system: T47D
TK-10 = test system: TK-10

Measured: GI50

COc1ccc(CC2NCCc3cc(OC)c(OC)cc32)cc1Br (stereo not drawn)
inactive: 786-0 39.4 µM | CAKI-1 19.7 µM | EKVX 35.2 µM | HCT-116 14.9 µM | HT-29 19.1 µM | MCF7 > 100 µM | MOLT-4 20.7 µM | NCI-H226 18.6 µM | NCI-H23 23 µM | OVCAR-3 76.6 µM | OVCAR-5 19.5 µM | SF-268 63.5 µM | SK-MEL-2 27.2 µM | SK-OV-3 96.4 µM | SN12C 36.1 µM | SNB-19 78.3 µM | SNB-75 24.3 µM | T47D 27.9 µM | TK-10 25.6 µM
> 100 µM: HCT-15

Nc1nc(F)nc2c1ncn2C1OC(COP(=O)(O)O)C(O)C1O (stereo not drawn)
175 µM: HCT-15
inactive: 786-0 39.5 µM | CAKI-1 8.17 µM | EKVX 45.9 µM | HCT-116 33.1 µM | HT-29 310 µM | MCF7 78.3 µM | MOLT-4 4.38 µM | NCI-H226 98.2 µM | NCI-H23 19.6 µM | OVCAR-3 119 µM | OVCAR-5 41.9 µM | SF-268 76 µM | SK-MEL-2 31.4 µM | SK-OV-3 26.9 µM | SN12C 6.47 µM | SNB-19 25.1 µM | SNB-75 188 µM | T47D 78.7 µM | TK-10 128 µM

Cn1c2c(c3ccccc31)CC(=O)N1CCCCC1C21OCCO1 (stereo not drawn)
> 100 µM: HCT-15
inactive: 786-0 > 100 µM | CAKI-1 > 100 µM | EKVX > 100 µM | HCT-116 > 100 µM | HT-29 > 100 µM | MCF7 > 100 µM | MOLT-4 > 100 µM | NCI-H226 > 100 µM | NCI-H23 > 100 µM | OVCAR-3 > 100 µM | OVCAR-5 > 100 µM | SF-268 > 100 µM | SK-MEL-2 > 100 µM | SK-OV-3 > 100 µM | SN12C > 100 µM | SNB-19 > 100 µM | SNB-75 > 100 µM | T47D > 100 µM | TK-10 > 100 µM

CNC1C(=O)C(C)C(O)(C(CC(C)C(O)/C=C/C=C/CNC(=O)C(C)(C)C(O)\C(C)=C/C=C\C=C\Cc2cnc(C)o2)OC)C12C(=O)OC2C.CNC1C(=O)C(C)C(O)(C(CC(C)C(O)/C=C/C=C/CNC(=O)C(C)(C)C(O)\C(C)=C/C=C\C=C\Cc2cnc(C)o2)OC)C12C(=O)OC2COC (stereo not drawn)
21 µM: HCT-15
inactive: 786-0 18.5 µM | CAKI-1 31.8 µM | HCT-116 15.1 µM | HT-29 3.27 µM | MOLT-4 8.85 µM | OVCAR-3 1.56 µM | OVCAR-5 20.6 µM | SF-268 5.68 µM | SK-MEL-2 5.94 µM | SK-OV-3 19 µM | SN12C 10.9 µM | SNB-19 19.9 µM | TK-10 11.9 µM
active: EKVX 0.292 µM | MCF7 0.354 µM | NCI-H226 0.668 µM | NCI-H23 0.218 µM | SNB-75 0.942 µM | T47D 0.202 µM

CCCCCCN(C(=O)Oc1ccccc1)C(C#N)c1ccccc1 (stereo not drawn)
> 100 µM: HCT-15
inactive: 786-0 > 100 µM | CAKI-1 > 100 µM | EKVX > 100 µM | HCT-116 > 100 µM | HT-29 > 100 µM | MCF7 > 100 µM | MOLT-4 > 100 µM | NCI-H226 > 100 µM | NCI-H23 > 100 µM | OVCAR-3 > 100 µM | OVCAR-5 > 100 µM | SF-268 > 100 µM | SK-MEL-2 > 100 µM | SK-OV-3 > 100 µM | SN12C > 100 µM | SNB-19 > 100 µM | SNB-75 > 100 µM | T47D > 100 µM | TK-10 > 100 µM

Fc1ccccc1/N=c1\oc2ccc(Br)cc2cc1-c1nc2ccccc2[nH]1
30.1 µM: HCT-15
active: SF-268 0.522 µM
inactive: 786-0 3.18 µM | CAKI-1 9.55 µM | EKVX 9.29 µM | HCT-116 8.61 µM | MCF7 14.8 µM | MOLT-4 > 30.8 µM | NCI-H226 4.26 µM | NCI-H23 7.33 µM | OVCAR-3 6.15 µM | OVCAR-5 34.8 µM | SK-MEL-2 8.18 µM | SK-OV-3 10.7 µM | SN12C 16.6 µM | SNB-19 4.26 µM | SNB-75 1.84 µM | T47D 38.3 µM | TK-10 6.59 µM

Cc1ccc(NC(=S)C#N)c(C)c1
inactive: 786-0 > 100 µM | CAKI-1 > 100 µM | EKVX > 93.5 µM | HCT-116 > 78.7 µM | HT-29 > 91.2 µM | MCF7 > 69.5 µM | MOLT-4 28.8 µM | NCI-H226 > 84.3 µM | NCI-H23 > 69.5 µM | OVCAR-3 37.7 µM | OVCAR-5 > 100 µM | SF-268 > 87.3 µM | SK-MEL-2 > 100 µM | SK-OV-3 > 100 µM | SN12C > 100 µM | SNB-19 > 100 µM | SNB-75 > 82.4 µM | T47D 46 µM | TK-10 > 100 µM
> 92.7 µM: HCT-15

CC(=O)c1cccc(NC(=O)C(=O)NNc2nnc(S)n2N)c1
inactive: 786-0 11.3 µM | CAKI-1 17.3 µM | EKVX 14.2 µM | HCT-116 4 µM | HT-29 9.4 µM | MCF7 4.27 µM | MOLT-4 3.6 µM | NCI-H226 12.2 µM | NCI-H23 3.18 µM | OVCAR-3 3.99 µM | OVCAR-5 17.3 µM | SF-268 9.62 µM | SK-MEL-2 3.06 µM | SK-OV-3 20.5 µM | SN12C 7.4 µM | SNB-19 6.25 µM | SNB-75 7.29 µM | T47D 3.5 µM | TK-10 25.9 µM
4.9 µM: HCT-15

COc1ccc(CC2Cc3ccccc3CC(=O)N2)cc1OC (stereo not drawn)
inactive: 786-0 > 100 µM | CAKI-1 > 100 µM | EKVX 89.7 µM | HCT-116 98.9 µM | HT-29 > 100 µM | MCF7 52 µM | MOLT-4 24.6 µM | NCI-H226 43.6 µM | NCI-H23 87.7 µM | OVCAR-3 97.3 µM | OVCAR-5 > 100 µM | SK-MEL-2 > 100 µM | SK-OV-3 > 100 µM | SN12C > 100 µM | SNB-19 > 100 µM | SNB-75 48.2 µM | T47D 17.3 µM | TK-10 > 100 µM
> 100 µM: HCT-15

NC(=O)N/N=C1/c2ccccc2-n2nccc21
inactive: 786-0 76.6 µM | CAKI-1 52.5 µM | EKVX > 100 µM | HCT-116 30.8 µM | HT-29 76.4 µM | MCF7 21.5 µM | MOLT-4 47.1 µM | NCI-H226 45.5 µM | NCI-H23 > 100 µM | OVCAR-3 40.7 µM | OVCAR-5 > 100 µM | SF-268 87.1 µM | SK-MEL-2 > 100 µM | SK-OV-3 > 100 µM | SN12C 89.9 µM | SNB-19 > 100 µM | SNB-75 28.8 µM | T47D 27.4 µM | TK-10 > 100 µM
55.7 µM: HCT-15
